In patent US8217006B2, “Inhibiting GS-FDH to modulate no bioactivity” (Duke University, priority 2001, dated 2012):

Experiments:
[1] = system: sfa1 mutant cells; experiment: Growth of GS-FDH-deficient yeast under nitrosative or oxidative stress; assay type: cell-based
Text: Genet. 237, 351 (1993) (SFA1/YDL168w) was replaced with dominant selectable cassettes Kan 2 (resistant to G418) or hphMX (resistant to hydromycin) by direct targeting as described in Wach, A., et al., Yeast 10, 1793 (1994). KanMX2 is described in Wach, A. et al., Yeast 10, 1793 (1994). hphMX is described in Goldstein and MeCuskler, Yeast 15, 1541 (1991).

[2] = system: ARDS; conditions: inhaled 10 mM in 3 cc normal saline; from 60 mm Hg on 100% oxygen; over 1 hour
Text: A person develops ARDS as a complication of urosepsis. They are intubated and transferred to the Intensive Care Unit.

[3] = system: swollen abdomen and elevated LSTs; conditions: infusion 200 milligrams per kilogram every 6 hours for two weeks
[4] = system: unstable angina; conditions: intravenous infusion 100 mg per kg Q6 hours; on betablockers and nitrates
Text: A person status post CABG×2 presents with unstable angina.

[5] = system: wheezing; conditions: intravenous infusion 50 mg/kg Q.6 hours; person
[6] = system: viral pneumonia; conditions: inhaled, 3 mM/3 cc normal saline four times a day
Text: A person status post lung transplant is admitted to the hospital with viral pneumonia.

[7] = system: angina; experiment: Example XXVII: angina treated with nitroglycerine and GS-FDH inhibitor; assay type: in vivo, human; conditions: 600 mg TIE, concomitantly with nitroglycerine
[8] = system: atherosclerosis; conditions: 600 mg TID for a week
[9] = system: liver function; conditions: infusion 200 milligrams per kilogram every 6 hours; over the following week
Text: A child presents to the Emergency Room having ingested a toxic dose of Tylenol. […] This is an example of treating a patient for a disease where there is risk of apoptosis occurring.

[10] = system: 90% lesion of the left anterior descending coronary artery; conditions: 600 mg P.O. three times a day for a month
Text: A person has a stent placed for 90% lesion of the left anterior descending coronary artery.

[11] = system: severe heart failure; conditions: infusion 1 gram TED for 10 days
Text: A person with acute viral myocarditis develops severe heart failure. […] They are placed on the transplant list.

[12] = system: Hodgkins disease; conditions: 1 gram three times a day for a month
Text: A person has a biopsy done on an axillary node which establishes the diagnosis of Hodgkins disease.

[13] = system: squamous cell cancer; conditions: intravenously 200 milligrams per kilogram four times a day; stage 3B before
[14] = system: pinworm; conditions: 1 gram daily for three days
[15] = system: malignant hypertension; experiment: Example XXVIII: heart failure and malignant hypertension; assay type: in vivo, human
Text: A person presents with heart failure and malignant hypertension.

[16] = system: cystic fibrosis; experiment: Example II: patient with cystic fibrosis; assay type: in vivo, human; conditions: inhaled S-nitrosoglutathione (10 mM in 3 cc) in combination with D-glutathione (3 mM in 10 cc); over the following day
Text: A person with cystic fibrosis presents to the Emergency Room with difficulty breathing and a fever.

[17] = system: blood pressure; conditions: 600 milligrams BID; three weeks later; 160/90 before
Text: A person presents to their primary care physician.

[18] = system: benign prostatic hypertrophy; conditions: 600 mg three times a day; over three months
[19] = GSNO decomposition in reaction buffer, no lysate (Saville assay); assay type: biochemical; conditions: 200 μM GSNO, 37° C., 5 minutes
Protocol: (§1) After precipitation of the reaction mixtures with trichloroacetic acid (8.3% final concentration), the supernatants were diluted threefold in the buffer and nitrosothiol levels in the reaction mixture were measured by the Saville assay as described in Stamler, J. S., Science 276, 2034 (1997). Data are the mean of two independent experiments.

[20] = system: human monocyte THP-1 cells; experiment: GSNO metabolizing activity of THP-1 cell lysate (Saville assay); assay type: biochemical; conditions: THP-1 lysate 4 μg/ml, 200 μM GSNO, 37° C., 5 minutes
Protocol: as §1, with “The cells were from cell lines obtained from the ATCC. Cells were homogenized by sonication in a solution containing 20 mM Tris-HCl (pH 8.0), 0.5 mM EDTA, 0.1% NP-40 and 1 mM phenylmethylsulfonyl fluoride (PMSF). […] After” for “After”

[21] = system: wild-type Y190 cells; experiment: Growth of wild-type yeast treated with GSNO; assay type: cell-based; conditions: same concentrations as for the mutants
[22] = system: human HeLa cells; experiment: GSNO metabolizing activity of HeLa cell lysate (Saville assay); assay type: biochemical; conditions: HeLa lysate 4 μg/ml, 200 μM GSNO, 37° C., 5 minutes
Protocol: as §1, with “The cells were from cell lines obtained from the ATCC. Cells were homogenized by sonication in a solution containing 20 mM Tris-HCl (pH 8.0), 0.5 mM EDTA, 0.1% NP-40 and 1 mM phenylmethylsulfonyl fluoride (PMSF). […] After” for “After”

[23] = system: human epithelial A549 cells; experiment: GSNO metabolizing activity of A549 cell lysate (Saville assay); assay type: biochemical; conditions: A549 lysate 4 μg/ml, 200 μM GSNO, 37° C., 5 minutes
Protocol: as §1, with “The cells were from cell lines obtained from the ATCC. Cells were homogenized by sonication in a solution containing 20 mM Tris-HCl (pH 8.0), 0.5 mM EDTA, 0.1% NP-40 and 1 mM phenylmethylsulfonyl fluoride (PMSF). […] After” for “After”

[24] = system: Cells from an injured mouse liver; experiment: Survival of cells from cytokine-injured mouse liver treated with NO synthase inhibitor; assay type: cell-based; conditions: 1 millimolar
Protocol: (§2) Hepatocytes of wild-type mice and their GS-FDH^−/− littermates were harvested after perfusion of the livers with Liberase (Roche), and purified by repeated differential sedimentation at 50×g, followed by centrifugation over a 30% Percoll solution. […] The cells were then cultured in the presence of recombinant mouse tumor necrosis factor-α (500 units/ml), interferon-gamma (100 units/ml), interleuken-1β (200 units/ml) and lipopolysaccharide (LPS, 10 μg/ml; E. coli 0128:B12; Sigma) for 14 and 40 hours. Nitrosylation levels in hepatocytes were measured as described in Eu, J., et al., Biochemistry 39, 1040-1047 (2000). […] See Liu, L. and Stamler, J. S., Cell Death and Differentiation 6, 937-942 (1999).

[25] = system: injured mouse liver cells deficient in GS-FDH; experiment: Survival of GS-FDH-deficient cells from cytokine-injured mouse liver treated with NO synthase inhibitor; assay type: cell-based; conditions: same cells but deficient in GS-FDH; 1 millimolar
Protocol: as §2

[26] = molecular target: T1, mouse GS-FDH (Mus musculus, UniProt P28474); experiment: Kinetic analysis of purified GSNO reductase (GS-FDH) from RAW 264.7 cells; assay type: biochemical; conditions: purified protein
T1 construct: GSNO-metabolizing activity of RAW 264.7 cells was recovered in a single function following anion exchange on a MonoQ column; endogenous in cells; host or cells: RAW 264.7 mouse macrophages (ATCC); purified by ammonium sulfate precipitation, MonoQ and 5' AMP Sepharose 4B
Protocol: Cells were homogenized by sonication in a solution containing 20 mM Tris-HCl (pH 8.0), 0.5 mM EDTA, 0.1% NP-40 and 1 mM phenylmethylsulfonyl (PMSF).
Further purification over a 5′ AMP Sepharose column yielded a single band of about 43 kDa in a silver-stained SDS-PAGE gel. […] After dialysis against 20 mM Tris-HCl (pH 8.0), the proteins were fractionated on a MonoQ column with increasing concentrations of NaCl. […] SDS-PAGE and Coomassie blue staining gave the single band of about 43 kDa.
The purified protein was digested by trypsin and the resulting peptides were analyzed by mass spectrometry. Peptide mass database search with GPMAW program identified the protein as mouse GS-FDH(SP-P28474) with high scores, matching 8 fragments (42% coverage) to mouse GS-FDH.

[27] = system: impotence; experiment: Example XIII: diabetic patient with impotence; assay type: in vivo, human
Text: A diabetic with a history of impotence presents to their urologist. […] Their physician adds topical mycophenolic acid (5% paste) with good results.

[28] = system: tumors; conditions: previous use; cited from earlier work
[29] = system: restenosis; experiment: Example X: restenosis post-angioplasty, drug-coated stent; assay type: in vivo, human; conditions: Nir stent coated with drug, 30% per polymer
Text: The patient was discharged the following day, and did well.

[30] = system: intractable angina; experiment: Example VIII: patient with intractable angina; assay type: in vivo, human; conditions: 6 grams injected at 20 milligrams per milliliter, daily for seven days; by six weeks
Protocol: A person with intractable angina is administered ribavirn as 6 grams diluted to a final volume of 300 cc in sterile water and injected at a final concentration of 20 milligrams per milliliter, given daily for seven days.

[31] = system: chronic psoriasis; experiment: Example XI: patient with chronic psoriasis; assay type: in vivo, human; conditions: topical paste, 5% with acetylsalicylic acid 2%, 8 hours a day, two weeks
Protocol: A person with chronic psoriasis presents at the dermatologist. A paste comprised of acetylsalicylic acid, 2%, combined with 5% ribavirin was applied topically for 8 hours a day.

[32] = system: ringworm; experiment: Example XVI: ringworm; assay type: in vivo, human; conditions: topical ointment 5%, daily for a week
[33] = system: pulmonary embolism; experiment: Example IX: patient with pulmonary embolism; assay type: in vivo, human; conditions: inhaled, 6 grams in 300 cc, aerosol, 12 hours/day for three days
Protocol: A person presents with shortness of breath and hemoptysis. […] Treatment is carried out for 12 hours/day for three days.

T1 sequence (P28474 whole entry): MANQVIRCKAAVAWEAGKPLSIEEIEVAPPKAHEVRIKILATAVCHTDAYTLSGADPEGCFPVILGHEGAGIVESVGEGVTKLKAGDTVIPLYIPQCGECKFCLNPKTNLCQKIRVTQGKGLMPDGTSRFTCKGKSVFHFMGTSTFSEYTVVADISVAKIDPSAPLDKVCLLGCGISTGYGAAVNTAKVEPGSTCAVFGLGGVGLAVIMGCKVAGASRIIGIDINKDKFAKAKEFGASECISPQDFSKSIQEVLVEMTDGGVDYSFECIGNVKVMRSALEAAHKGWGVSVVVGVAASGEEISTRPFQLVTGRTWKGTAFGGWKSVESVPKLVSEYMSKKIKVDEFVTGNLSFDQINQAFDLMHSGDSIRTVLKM

With `OO` [Compound H2O2, H2O2] the “sensitivity to the toxic effects, mutant versus wild-type Y190 cells” value ([1]; sfa1 mutant cells) was “no more sensitive”.

With `N[C@H](CCC(=O)N[C@H](CS)C(=O)NCC(=O)O)C(=O)O` [D-glutathione] the PO2 [2] was 80 mm/Hg, the “swelling and LSTs” value [3] was “swelling and elevated LSTs are reduced” and the “symptoms (chest pain)” value [4] was “relief of their symptoms”. The breathing [5] was “breathing improves”, the “symptoms of cough and shortness of breath” value [6] was “resolution of symptoms of cough and shortness of breath” and the “symptoms (chest pain)” value [7] was “total relief of symptoms”. The response to acetylcholine [8] was “improved response to acetylcholine”, the liver function [9] was “gradual normalization of liver function” and the “course after stent placement” value [10] was “does well”. For the same compound, the clinical course [11] was “stabilized their deteriorating course”, the adenopathy [12] was “resolution of adenopathy” and the “tumor stage on restaging” value [13] was 3A. For the same compound, the signs and symptoms [14] was “signs and symptom resolve”, the “Blood pressure, systolic” value ([15]; 600 mg TID coadministered with nitroprusside, from 200) was 160 and the “symptoms (difficulty breathing, fever)” value [16] was “symptoms resolve”. For the same compound, the blood pressure [17] was 140/80 and the “symptoms (urinary frequency and hesitancy)” value [18] was “symptoms gradually resolve”.

`N[C@@H](CCC(=O)N[C@@H](CSN=O)C(=O)NCC(=O)O)C(=O)O` [GSNO, S-nitrosoglutathione] gave a GSNO metabolizing activity ([19]; +NADH) of 0.0%, a GSNO metabolizing activity ([19]; +NADPH + GSH + ASA) of 0.7% and a GSNO metabolizing activity ([19]; Buffer only) of 6.2%. The GSNO metabolizing activity ([20]; +NADH) was 90.8%, the GSNO metabolizing activity ([20]; +NADPH + GSH + ASA) was 22.6% and the GSNO metabolizing activity ([20]; Buffer only) was 18.8%. For the same compound, the Growth of cells [21] was “little effect”, the GSNO metabolizing activity ([22]; +NADH) was 84.2% and the GSNO metabolizing activity ([22]; +NADPH + GSH + ASA) was 35.4%. The GSNO metabolizing activity ([22]; Buffer only) was 29.9%, the GSNO metabolizing activity ([23]; +NADH) was 72.3% and the GSNO metabolizing activity ([23]; +NADPH + GSH + ASA) was 43.9%. The GSNO metabolizing activity ([23]; Buffer only) was 14.7%, the “symptoms (difficulty breathing, fever)” value [16] was “symptoms resolve” and the Growth of cells ([1]; sfa1 mutant cells (G418^r and hygromicin^r clones)) was “markedly inhibited”.

With `CNC(=N)NCCC[C@H](N)C(=O)O` [N^G-methyl-L-arginine] the “nitric oxide synthase activity left” value [24] was 20%, the cell death ([24]; liver injured by cytokine administration) was “found to die” and the cell death [25] was “died to a lesser extent”.

With `N[C@@H](CCC(=O)N[C@@H](CSCO)C(=O)NCC(=O)O)C(=O)O` [S-hydroxymethylglutathione] the “specific activity for oxidation, as share of the GSNO reducing activity” value [26] was “about 6%”.

With `CCCc1nn(C)c2c(=O)[nH]c(-c3cc(S(=O)(=O)N4CCN(C)CC4)ccc3OCC)nc12` [Viagra] the impotence ([27]; Viagra alone) was “no improvement”.

In the case of `NC(=O)c1coc([C@@H]2O[C@H](CO)[C@@H](O)[C@H]2O)c1` [furanfurin, 5-β-D-ribofuranosylfuran-3-carboxamide], the “activity as antitumor agent” value [28] is given as “inactive”.

In the case of `COc1c(C)c2c(c(O)c1C/C=C(\C)CCC(=O)O)C(=O)OC2` [mycophenolic acid], the impotence ([27]; topical 5% paste added to Viagra) was “good results” and the “outcome of stent deployment” value [29] was “successful results”.

For `NC(=O)c1ncn([C@@H]2O[C@H](CO)[C@@H](O)[C@H]2O)n1` [ribavirin], the angina [30] was “angina had improved”, the psoriatic lesion [31] was “psoriatic lesion had resolved” and the skin lesion [32] was “skin lesion resolve”. The “symptoms (shortness of breath, hemoptysis)” value [33] was “improvement in symptoms” and the “activity as antitumor agent” value [28] was “inactive”.

For nitroprusside, the “Blood pressure, systolic” value ([15]; nitroprusside alone, 1.0 μg/kg/min IV infusion for 10 minutes, from 240) was 200.
